# Reference: US20150202224A1, “METHOD OF TREATING IRON DEFICIENCY ANEMIA” (Luitpold Pharmaceuticals, Inc., priority 2012, published 2015)
# Read-outs that look alike come from different tables or passages of the source.
# Experiments:
# [1] = tested on: subjects with iron deficiency anemia (IDA); assay: Randomized trial of ferric carboxymaltose vs. oral iron in non-responders to the oral iron run-in: hemoglobin levels; assay type: in vivo, human; settings: for Hemoglobin at baseline (Day 1), mean (SD): before randomized treatment, non-responders to oral iron run-in; for Hemoglobin change to Day 35, mean (SD) / Hemoglobin change to Day 35, median: change from baseline (Day 1) to Day 35; for percentage of subjects with a hemoglobin increase of ≧1 g/dL: non-responders to the oral iron run-in in whom hepcidin values were measured; for percentage of subjects with a hemoglobin increase of ≧1 g/dL / mean Hemoglobin increases / percentage of subjects with hemoglobin change ≧2 g/dL: after randomization; for mean Hemoglobin increases / percentage of subjects with hemoglobin change ≧2 g/dL: non-responders to the oral iron run-in
# Description: The following example describes hepcidin measurements obtained during a randomized, multi-center, controlled trial comparing the efficacy and safety of ferric carboxymaltose in subjects with iron deficiency anemia (IDA) (see generally, Szczech 2011).
# (§1) Ferric carboxymaltose (Group A) was administered at a dose of 15 mg/kg to a maximum 750 mg per dose administered intravenously on Day 0 and Day 7. Oral iron was given as ferrous sulfate 325 mg three times a day for an additional 14 days starting on Day 0.
# Hemoglobin levels and markers of iron status were assessed up to 35 days and measures of safety and tolerability were assessed up to 120 days. Hemoglobin levels and markers of iron status were assessed at screening (Day […]), Day 1, and Day 35.
# (§2) The following example describes the randomized study of ferric carboxymaltose (FCM) vs. oral iron therapy on non-responders. Baseline (Day 1) and post-treatment (Day 35) levels of hepcidin and hemoglobin were compared.
# [2] = tested on: hepcidin; assay: Randomized trial of ferric carboxymaltose vs. oral iron in non-responders: serum hepcidin levels by C-ELISA; assay type: in vivo, human; settings: for Hepcidin on Day 35, mean (SD) / Hepcidin on Day 35, median / Hepcidin at baseline (Day 1), mean (SD) / Hepcidin at baseline (Day 1), median: non-responders to oral iron run-in; for Hepcidin at baseline (Day 1), mean (SD): before randomized treatment; for Hepcidin change to Day 35, mean (SD) / Hepcidin change to Day 35, median: change from baseline (Day 1) to Day 35; for change in hepcidin from baseline (Day 1) to Day 35, in words: non-responders to the oral iron run-in
# Description: as §1
# Hepcidin levels were analyzed from serum samples obtained at screening (Day […]) in an initial Analysis Group (I) of 44 subjects, 22 responders, and 22 non-responders. A hepcidin value of ≧20 ng/mL was identified as a cutoff for further study in the determination of predictive values for non-responsiveness to 14 day oral iron run-in in 240 subjects (Analysis Group II).
# Hepcidin levels were also assessed after the oral iron run-in (Day 1) and after treatment with intravenous (IV) iron or oral iron post-randomization (Day 35). Hepcidin levels were measured using a commercially available competitive enzyme-linked immunosorbent assay (C-ELISA). Samples were collected by the investigator at the site, stored by a contract research organization (Covance, Indianapolis, Ind.) and sent to a commercial laboratory (Intrinsic LifeSciences, La Jolla, Calif.) for analysis.
# as §2
# [3] = tested on: subjects with iron deficiency anemia (IDA); settings: Analysis Group II, ferrous sulfate 325 mg three times daily for 14 days
# Description: Eligibility for this trial included subjects≧18 years of age with hemoglobin≦11 g/dL and IDA of any etiology with ferritin≦100 ng/mL, or ≦300 ng/mL when transferrin saturation (TSAT) was ≦30%.
# The following example describes the determination and comparison of hepcidin levels in 240 subjects with response to oral iron. Hepcidin and other iron indices were measured and compared. The objective of the study was to determine the baseline characteristics of the subject population and to compare levels of hepcidin, hemoglobin, and iron indices in responders and non-responders after a 14 day treatment of oral iron.
# [4] = cited from earlier work
# [5] = in vitro and in vivo; cited from earlier work
# [6] = tested on: dextran antibodies; settings: cited from earlier work
# [7] = tested on: rabbit; settings: intra-arterial, perivenous or intravenous; cited from earlier work
# [8] = tested on: dogs and rats; settings: cumulative doses over 13 weeks, dose-related clinical signs of iron accumulation in liver, spleen, kidneys; cited from earlier work
# [9] = in vivo; cited from earlier work
# [10] = tested on: rodents and dogs; settings: single dose; cited from earlier work
# [11] = listed as ferric carboxymaltose
Substance,"Hemoglobin on Day 35, mean (SD) [1]","Hemoglobin on Day 35, median [1]","Hemoglobin at baseline (Day 1), median [1]","Hemoglobin at baseline (Day 1), mean (SD) [1]","Hemoglobin change to Day 35, mean (SD) [1]","Hemoglobin change to Day 35, median [1]",percentage of subjects with a hemoglobin increase of ≧1 g/dL [1],mean Hemoglobin increases [1],percentage of subjects with hemoglobin change ≧2 g/dL [1],"Hepcidin on Day 35, mean (SD) [2]","Hepcidin on Day 35, median [2]","Hepcidin at baseline (Day 1), mean (SD) [2]","Hepcidin at baseline (Day 1), median [2]","Hepcidin change to Day 35, mean (SD) [2]","Hepcidin change to Day 35, median [2]","change in hepcidin from baseline (Day 1) to Day 35, in words [2]",also measured
ferrous sulfate [Oral iron],11.0 (1.3) g/dL,10.9 g/dL,10.7 g/dL,10.4 (1.2) g/dL,0.6 (0.9) g/dL,0.5 g/dL,20.8%,0.6±0.9 gm/dL,5.2%,29.0 (53.894) ng/mL,10.5 ng/mL,32.0 (44.314) ng/mL,19.6 ng/mL,−3.02 (41.793) ng/mL,-6.0 ng/mL,no significant change,"Hemoglobin change to Day 35, mean (SD) ([1]; listed as oral iron): 0.6 g/dL; Hepcidin at baseline (Day 1), mean (SD) ([2]; listed as oral iron): 32.03 ng/mL; hemoglobin change after the 14 day oral iron run-in, non-responders ([3]; non-responders (Hb Δ <1 g/dL)): 0.2 ± 0.4 g/dL; hemoglobin change after the 14 day oral iron run-in, responders ([3]; responders (Hb Δ ≧1 g/dL)): 1.8 ± 0.6 g/dL"
iron sucrose,,,,,,,,,,,,,,,,,"injected amount still in the blood ([4]; in vivo, iv): 2 to 13%; projected calculated terminal half-life (t½) ([4]; in vivo, iv): 6 h"
"polynuclear iron (III)-hydroxide 4(R)-(poly-(1→4)-O-α-glucopyranosyl)-oxy-2(R),3(S),5(R),6-tetrahydroxy-hexanoate [FCM]",12.0 (1.4) g/dL,12.2 g/dL,10.4 g/dL,10.3 (1.1) g/dL,1.7 (1.3) g/dL,1.7 g/dL,65.3%,1.7±1.3 gm/dL,37.5%,160.5 (181.543) ng/mL,112.6 ng/mL,39.2 (92.236) ng/mL,2.5 ng/mL,121.35 (115.977) ng/mL,91.9 ng/mL,significant increase,"mutagenicity [5]: no evidence that FCM is clastogenic, mutagenic, or causes chromosomal damage or bone marrow cell toxicity; reaction with dextran antibodies [6]: does not react with dextran antibodies; specific responses in a dextran antigenicity test [6]: no specific responses; treatment-related local tissue irritation [7]: No treatment-related local tissue irritation was observed; no observed adverse effect level, cumulative dose [8]: up to 117 mg iron/kg body weight; Hemoglobin change to Day 35, mean (SD) [1, 11]: 1.7 g/dL; injected amount still in the blood ([4]; eight hours after intravenous administration): 5 to 20%; projected calculated terminal half-life (t½) ([4]; intravenous): approximately 16 hours; acute toxicity relative to iron sucrose [9]: one-fifth that of iron sucrose; Hepcidin on Day 35, mean (SD) [2, 11]: 160.51 ng/mL; Hepcidin at baseline (Day 1), mean (SD) [2, 11]: 39.15 ng/mL; Hepcidin change to Day 35, mean (SD) [2, 11]: 121.35 ng/mL; safe and tolerated intravenous dose as multiple of the equivalent of an intravenous infusion of 1,000 mg iron once weekly in humans [10]: up to 60 times"
